According to US4400384A, “5-o-Cyanobenzyl-4,5,6,7-tetrahydrothieno [3,2-c] pyridine methanesulfonate and other novel salts thereof” (Sanofi, S.A., priority 1980, dated 1983):
“Also recorded” adds a separate entry of the source. Like-named read-outs stand apart in the source and are kept apart here.

Columns and labels:
[1] = tested on: blood-platelet aggregation; assay: Clinical study, second series: inhibition of blood-platelet aggregation; type: in vivo, human; conditions: oral capsules, 700 mg per day, 7 days plus morning of 8th day, 11 patients
Description: In a second series of tests, the MS salt was again administered orally in the form of capsules containing 175 mg of the active salt. Eleven patients were treated, each patient receiving 4 capsules per day containing a total of 700 mg of MS salt divided in two portions of 350 mg morning and evening, after meals, for 7 days, and on the 8th day in the morning only. Therefore, the total amount of active ingredient (MS salt) was 5250 mg to each subject.

Hemostasis activity = conditions: in vivo
Diuretic activity = conditions: in vivo
[2] = tested on: blood-platelet aggregation (collagen); assay: Inhibitor action on blood-platelet aggregation, collagen method (ex vivo after gastric tube dosing); type: in vivo, female rats of the Wistar type; conditions: 100 mg/Kg base equivalent at 48, 24 and 2 h before blood drawing, controls 2.53
Description: (§1) The inhibitor action on blood-platelet aggregation of the salts of the present invention was determined by two different standard methods known to the art.
The second method is that described in Ferrand J. C., Lale A.--NUMERATION ET AGREGATION PLAQUETTAIRE A L AIDE DE L AUTOCOUNTER. APPLICATION A L ETUDE DE LA TICLOPIDINE. COMM. SYMPOSIUM TECHNICON INDUSTRIE (PARIS, June 15, 1978); Ferrand J. C., Lale A.--EVALUATION EX-VIVO DE L AGREGATION PLAQUETTAIRE PAR UNE TECHNIQUE AUTOMATIQUE SUR SANG TOTAL COMM. SOCIETE FRANCAISE DE BIOLOGIE CLINIQUE (PARIS Sept. 28, 1979); and J. C. Ferrand, A. Lale, D. Aubert and G. Barthelemy--APPRECIATION QUANTITATIVE DE L' ACTIVITE ANTI-AGREGANTE DE LA TICLOPIDINE PAR VOIE AUTOMATIQUE. COMM. REUNION DE L' ASOCIATION FRANCAISE DE PHARMACOLOGISTES DIJON (May 2-3, 1980), and is referred to hereafter as the collagen method.
(§2) Groups of 10 female rats of the Wistar type were each dosed with one of the base or one of the salts of the invention and with the corresponding maleate salt of Amselem U.S. Pat. No. 4,097,482, at periods of 48 hours, 24 hours and 2 hours prior to drawing blood for testing by the ADP and collagen techniques referred to above. The active medicaments were administered by means of a gastric tube in the form of a 5% aqueous solution of gum arabic. A dosage level of 100 mg/Kg was used for the base, and for the salts an amount was used sufficient to provide the equivalent amount of the base portion of the salt.

[3] = Hypolipidic, hypocholesterol, hypoglycemic activity; conditions: in vivo
[4] = Anti-inflammatory activity; type: in vivo; conditions: result in words; listed as MS salt, methanesulfonate
[5] = tested on: musculotropic isolated intestine; assay: Anti-spasmodic activity on isolated intestine
[6] = tested on: blood-platelet aggregation (ADP); assay: Inhibitor action on blood-platelet aggregation, ADP method (ex vivo after gastric tube dosing); type: in vivo, female rats of the Wistar type; conditions: 100 mg/Kg base equivalent at 48, 24 and 2 h before blood drawing
Description: as §1
The first method, involving the use of ADP (adenosine diphosphate), is that of Ferrand J. C., Gaich C., Dumas, A.--EVALUATION DE L' EFFET ANTI-AGREGANT DE LA TICLOPIDINE PAR UNE TECHNIQUE SUR SANG TOTAL. COMM. SOCIETE DE BIOLOGIE DE TOULOUSE (TOULOUSE Feb. 9, 1978), RESUME IN: REV MED TOULOUSE, 1978, 14, (SUPPL. 5) 680, referred to hereinafter as the ADP method.
as §2

red globules = assay: Anti-sludge activity in vivo in the rat
Acute toxicity in mice = conditions: mouse, in vivo
Description: The preferred methanesulfonate salt of the present invention was tested for acute and sub-acute toxicity and the results obtained on rats and mice by oral, intravenous and intraperitoneal administration are set forth in the tables below.

CS(=O)(=O)O.N#Cc1ccccc1CN1CCc2sccc2C1 [Methanesulfonate, 5-o-Cyanobenzyl-4,5,6,7-tetrahydrothieno [3,2-c] pyridine methanesulfonate]
inhibitory activity on blood-platelet aggregation in patients [1]: very effective inhibitory activity on blood-platelet aggregation
hemostasis activity (Hemostasis activity): no hemostasis activity
diuretic activity (Diuretic activity): free of diuretic activity
BLOOD PLATELET AGGREGATION, COLLAGEN [2]: 0.59
hypocholesterol activity [3]: no hypolipidic, hypocholesterol
hypoglycemic activity [3]: no hypolipidic, hypocholesterol, or hypoglycemic activity
hypolipidic activity [3]: no hypolipidic
anti-inflammatory activity [4]: free of anti-inflammatory or vasodilator activity as is the MS salt; also recorded: without anti-inflammatory activity
anti-spasmodic activity [5]: exhibit anti-spasmodic activity
BLOOD PLATELET AGGREGATION, ADP, 1 mn 30 s ([6]; 1 mn 30 s, controls 0.29): 0.73
BLOOD PLATELET AGGREGATION, ADP, 3 mn ([6]; 3 mn, controls 0.40): 0.88
anti-sludge activity in vivo, intravenous (red globules; administered intravenously): also in vivo when administered orally or intravenously in the rat
anti-sludge activity in vivo, oral (red globules; administered orally): also in vivo when administered orally
LD50 at 8 h (Acute toxicity in mice; intravenous, read-out: LD50, intravenous, mice): 134 mg/kg
LD50 at 8 h (Acute toxicity in mice; ip, intraperitoneal, read-out: LD50, intraperitoneal, mice): 898 mg/kg
LD50 at 8 h (Acute toxicity in mice; oral, read-out: LD50, oral, mice): 883 mg/kg
